Results taken from patent US10758623B2, “Pharmaceutically active agent complexes, polymer complexes, and compositions and methods involving the same” (Durect Corporation, priority 2013, dated 2020).
Read-outs that look alike come from different tables or passages of the source.

Legend:
Format in all cases: physicochemical
[1] = Stability following exposure to gamma radiation, RPLC purity (Example 30)
Text: The APIs were mixed with the complexable polymers at a ratio of 1:1, 1:4 or 1:10. The instantaneous precipitation was separated from reaction media (ammonium bicarbonate in water) and dried via lyophilization. The dried powder or the dried powder suspended in Benzyl Benzoate were loaded either in glass vial or plastic syringes (Intervene) and packed in aluminum pouches. These samples were exposed to gamma radiation (12.5 kGy-17.5 kGy) for more than 8 hrs at room temperature with radiation indicator sticker (Sterigenics, Corona, Calif.). These gamma irradiated samples were then analyzed for purity using reverse phase liquid chromatography (RPLC) in reference to non-gamma irradiated samples.

[2] = In vitro dissolution of decitabine and azacytidine from amine functionalized copolymer complex (Example 12); conditions: complex with amine functionalized copolymer (Example 2H); PBS pH 7.4, 37° C.; FIG. 7
Experimental: 1.00 g of decitabine or azacytidine powder was placed in a 150 mL wide-mouth glass jar. 100 mL of 50 mM NH4HCO3 solution were added, and the mixture was stirred at 400 rpm for 30 min at room temperature (until it became a visibly clear solution).
100 mL of a 10 mg/mL solution of functionalized complexation polymer were then prepared by stirring 1.00 g of polymer in 100 mL of MilliQ water at 400 rpm (until it became a clear solution).
The decitabine or azacytidine solution was combined with the complexation polymer solution at specific ratios as set forth below and monitored for precipitation. The combined materials were stirred for 30 min and then centrifuged in 50 mL Falcon™ tubes. The supernatant solution was removed for HPLC analysis to determine the quantity of free pharmaceutically active agent (not complexed). The resultant precipitate was resuspended in 50-100 mL of 50 mM NH4HCO3 solution and lyophilized according to the method described in Example 3.
Lyophilized complex powder was suspended in 1 mL ammonium bicarbonate (50 mM).
For dissolution or in vitro release testing, PBS (Phosphate buffered saline) pH˜7.4 was used as the medium, and the complexed powder was dispersed into the dissolution medium. […] The amount of decitabine or azacytidine in solution at each time point was determined by HPLC.

[3] = Attempted complexation of risperidone with carboxylate-functionalized 50:50 copolymer (Example 10); conditions: reaction mixture at pH ~5
Experimental: Dissolution experiments were conducted as set forth below to determine the in vitro release from a mixture of risperidone and a carboxylate-functionalized 50:50 copolymer prepared as described in Example 2E. […] This observation is mainly due to the limited solubilities of risperidone and the copolymer in the reaction mixture at pH˜5.
1.00 g of a risperidone powder was placed in a 150 mL wide-mouth glass jar. 100 mL of 50 mM NH4COOCH3 solution were added, and the mixture was stirred at 400 rpm for 30 min at room temperature (until it became a visibly clear solution).
100 mL of a 10 mg/mL solution of functionalized polymer were then prepared by stirring 1.00 g of polymer in 100 mL of MilliQ water at 400 rpm (until it became a clear solution).
The pharmaceutically active agent solution was combined with the polymer solution at specific ratios as set forth below and monitored for precipitation. The combined materials were stirred for 30 min and then centrifuged in 50 mL Falcon™ tubes. The supernatant solution was removed for HPLC analysis to determine the quantity of free pharmaceutically active agent (not precipitated). The resultant precipitate was resuspended in 50-100 mL of 50 mM NH4COOCH3 solution and lyophilized according to the method described in Example 3.

CCCCCCCCCCCCCCCC(=O)N[C@@H](CCC(=O)NCCCC[C@H](NC(=O)[C@H](C)NC(=O)[C@H](C)NC(=O)[C@H](CCC(N)=O)NC(=O)CNC(=O)[C@H](CCC(=O)O)NC(=O)[C@H](CC(C)C)NC(=O)[C@H](Cc1ccc(O)cc1)NC(=O)[C@H](CO)NC(=O)[C@H](CO)NC(=O)[C@@H](NC(=O)[C@H](CC(=O)O)NC(=O)[C@H](CO)NC(=O)[C@@H](NC(=O)[C@H](Cc1ccccc1)NC(=O)[C@@H](NC(=O)CNC(=O)[C@H](CCC(=O)O)NC(=O)[C@H](C)NC(=O)[C@@H](N)Cc1cnc[nH]1)[C@@H](C)O)[C@@H](C)O)C(C)C)C(=O)N[C@@H](CCC(=O)O)C(=O)N[C@@H](Cc1ccccc1)C(=O)N[C@H](C(=O)N[C@@H](C)C(=O)N[C@@H](Cc1c[nH]c2ccccc12)C(=O)N[C@@H](CC(C)C)C(=O)N[C@H](C(=O)N[C@@H](CCCNC(=N)N)C(=O)NCC(=O)N[C@@H](CCCNC(=N)N)C(=O)NCC(=O)O)C(C)C)[C@@H](C)CC)C(=O)O [Liraglutide]
stability after 15 kGy gamma irradiation, non-complexed API ([1]; RPLC, relative to the complexed APIs, with a corresponding reduction in potency): degraded faster

Nc1ncn([C@@H]2O[C@H](CO)[C@@H](O)[C@H]2O)c(=O)n1 [azacytidine]
stability under the tested dissolution conditions [2]: significantly degraded

Cc1nc2n(c(=O)c1CCN1CCC(c3noc4cc(F)ccc34)CC1)CCCC2 [risperidone]
complexation outcome with carboxylate-functionalized 50:50 copolymer (Example 2E) [3]: precipitated separately

HGH: Human Growth Hormone (Biosolutions)
stability after 15 kGy gamma irradiation, non-complexed API [1]: degraded faster
